biological target: human Kv1.3 (Homo sapiens (Human), UniProt P22001); experiment: Kv1.3 potency evaluation, automated patch clamp electrophysiology (QPatch HT) in CHO-Kv1.3 cells; type: cell-based; conditions: whole-cell QPatch HT, % inhibition of charge, step to +30 mV, four concentrations, N≥3 cells, read-out: hKv1.3 IC50
Method in brief: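 Automated whole-cell patch clamp in CHO cells stably expressing human Kv1.3; steps from −80 to +30 mV (500 ms) at 0.067 Hz. Four cumulative concentrations after vehicle (0.1-0.3% DMSO); charge inhibition vs vehicle fitted by four-parameter logistic for IC50, N≥3 cells.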

Sequence of human Kv1.3 (P22001 whole entry): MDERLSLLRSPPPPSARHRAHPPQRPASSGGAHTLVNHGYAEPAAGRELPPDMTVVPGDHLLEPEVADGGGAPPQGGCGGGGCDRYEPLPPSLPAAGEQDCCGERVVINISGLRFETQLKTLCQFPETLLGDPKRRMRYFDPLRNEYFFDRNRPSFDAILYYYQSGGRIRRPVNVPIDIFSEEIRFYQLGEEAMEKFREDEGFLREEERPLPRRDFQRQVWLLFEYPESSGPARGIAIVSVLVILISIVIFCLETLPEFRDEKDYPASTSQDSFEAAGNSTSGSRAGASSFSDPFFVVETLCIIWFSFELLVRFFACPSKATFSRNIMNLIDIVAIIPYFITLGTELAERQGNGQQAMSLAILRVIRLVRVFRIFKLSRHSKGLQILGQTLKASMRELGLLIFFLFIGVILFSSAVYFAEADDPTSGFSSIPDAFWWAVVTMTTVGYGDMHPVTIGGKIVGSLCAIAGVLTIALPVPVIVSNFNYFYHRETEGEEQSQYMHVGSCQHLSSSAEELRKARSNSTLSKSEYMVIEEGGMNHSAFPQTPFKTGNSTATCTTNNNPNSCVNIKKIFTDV

SMILES	IC50 [nM]
CC1(C)N=C(C23CC(N(Cc4cc(F)c(Cl)c(F)c4)S(=O)(=O)c4ccccc4)(C2)C3)N[C@H]1C(=O)NCCC(F)(F)F (mixture of isomers) [Example 155]	92
CC(C)(CC(F)(F)F)NC(=O)[C@@H]1NC(C23CC(N(Cc4ccc(Cl)c(F)c4)S(=O)(=O)c4ccccc4)(C2)C3)=NC1(C)C (mixture of isomers) [Example 141]	84
CC1(C)N=C(C23CC(N(Cc4ccc(Cl)c(Cl)c4)S(=O)(=O)c4ccccc4O)(C2)C3)N[C@H]1C(=O)NCCC(F)(F)F (mixture of isomers) [Example 226]	185
CC1(C)N=C(C23CC(N(Cc4ccc(Cl)c(F)c4)S(=O)(=O)c4ccccc4)(C2)C3)N[C@H]1C(=O)N1CC2CC(F)(F)CC2C1 (mixture of isomers) [Example 82]	61
CC1(F)CCN(C(=O)[C@@H]2NC(C34CC(N(Cc5ccc(Cl)c(F)c5)S(=O)(=O)c5ccccc5)(C3)C4)=NC2(C)C)C1 (mixture of isomers) [Example 127]	77
CC1(C)N=C(C23CC(N(Cc4ccc(Cl)c(F)c4)S(=O)(=O)c4ccccc4)(C2)C3)N[C@H]1C(=O)N1CCC(F)(F)C(C)(C)C1 (mixture of isomers) [Example 200]	129
CC1(C)N=C(C23CC(N(Cc4ccc(Cl)c(F)c4)S(=O)(=O)c4ccccc4)(C2)C3)N[C@H]1C(=O)N1CCOCC1 (mixture of isomers) [Example 257]	348
CC(C)(F)CNC(=O)[C@@H]1NC(C23CC(N(Cc4ccc(Cl)c(Cl)c4)S(=O)(=O)CCC(F)F)(C2)C3)=NC1(C)C (mixture of isomers) [Example 50]	48
CC1(C)N=C(C23CC(N(Cc4ccc(Cl)cc4)S(=O)(=O)CCO)(C2)C3)N[C@H]1C(=O)NCCC(F)(F)F (mixture of isomers) [Example 294]	10500
CN(C(=O)[C@@H]1NC(C23CC(N(Cc4ccc(Cl)c(Cl)c4)S(=O)(=O)c4ccccc4)(C2)C3)=NC1(C)C)C1CC(F)(F)C1 (mixture of isomers) [Example 29]	40
CN(C(=O)[C@@H]1NC(C23CC(N(Cc4ccc(Cl)c(Cl)c4)S(=O)(=O)c4ccccc4)(C2)C3)=NC1(C)C)C12CC(C1)C2 (mixture of isomers) [Example 17]	35
C[C@H]1CCN(C(=O)[C@@H]2NC(C34CC(N(Cc5ccc(Cl)c(F)c5)S(=O)(=O)c5ccccc5)(C3)C4)=NC2(C)C)C1 (mixture of isomers) [Example 85]	62
CC1(C)N=C(C23CC(N(Cc4ccc(F)c(F)c4)S(=O)(=O)c4ccccc4)(C2)C3)N[C@H]1C(=O)NCCC(F)(F)F (mixture of isomers) [Example 24]	40
C[C@@]1(C(=O)Nc2ccccc2)CN=C(C23CC(N(Cc4ccc(C(F)(F)F)cc4)S(=O)(=O)c4ccc(F)cc4)(C2)C3)N1 (mixture of isomers) [Example 288]	1020
CC1(C)N=C(C23CC(N(Cc4ccc(Cl)cc4F)S(=O)(=O)c4ccccc4)(C2)C3)N[C@H]1C(=O)NCCC(F)(F)F (mixture of isomers) [Example 9]	28
CCCS(=O)(=O)N(Cc1ccc(Cl)c(Cl)c1)C12CC(C3=NC(C)(C)[C@H](C(=O)N4CCC(F)(F)CC4)N3)(C1)C2 (mixture of isomers) [Example 96]	65
CC(C)NC(=O)[C@@]1(C)CN=C(C23CC(N(Cc4ccccc4)S(=O)(=O)c4ccc(F)cc4)(C2)C3)N1 (mixture of isomers) [Example 243]	251
CN(CC(C)(C)F)C(=O)[C@@H]1NC(C23CC(N(Cc4ccc(Cl)c(Cl)c4)S(=O)(=O)c4ccccc4)(C2)C3)=NC1(C)C (mixture of isomers) [Example 58]	50
CC1(C)N=C(C23CC(N(Cc4ccc(Cl)c(F)c4)S(=O)(=O)c4ccccc4)(C2)C3)N[C@H]1C(=O)N1CCCC1 (mixture of isomers) [Example 185]	109
CC1(C)N=C(C23CC(N(Cc4ccc(Cl)c(Cl)c4)S(=O)(=O)CCCF)(C2)C3)N[C@H]1C(=O)NCCC(F)(F)F (mixture of isomers) [Example 128]	77
O=C(NCC1CCC1)C1(Cc2ccccc2)CN=C(C23CC(N(Cc4ccc(C(F)(F)F)cc4)S(=O)(=O)c4ccc(F)cc4)(C2)C3)N1 (stereo not drawn) [Example 279]	608
CC1(C)N=C(C23CC(N(Cc4ccc(Cl)c(Cl)c4)S(=O)(=O)c4ccccc4)(C2)C3)N[C@H]1C(=O)NCCC(F)(F)F (mixture of isomers) [Example 62]	52
CC1(C)N=C(C23CC(N(Cc4ccc(Cl)c(F)c4)S(=O)(=O)c4ccccc4)(C2)C3)N[C@@H]1C(=O)N1CCC(F)(F)CC1 (mixture of isomers) [Example 248]	275
CN(CC(F)(F)C(F)(F)F)C(=O)[C@@H]1NC(C23CC(N(Cc4ccc(Cl)c(F)c4)S(=O)(=O)c4ccccc4)(C2)C3)=NC1(C)C (mixture of isomers) [Example 181]	106
C[C@]1(C(=O)NCC2CCC2)CN=C(C23CC(N(Cc4ccc(C(F)(F)F)cc4)S(=O)(=O)c4ccc(F)cc4)(C2)C3)N1 (mixture of isomers) [Example 214]	159
CCCS(=O)(=O)N(Cc1ccc(Cl)c(Cl)c1)C12CC(C3=NC(C)(C)[C@H](C(=O)NCCC(F)(F)F)N3)(C1)C2 (mixture of isomers) [Example 136]	82
CN(C(=O)[C@@H]1NC(C23CC(N(Cc4ccc(Cl)c(F)c4)S(=O)(=O)c4ccccc4)(C2)C3)=NC1(C)C)C1CC(F)(F)C1 (mixture of isomers) [Example 151]	90

— patent US12128028B2, “Heterocyclic sulfonamide derivatives and pharmaceutical uses thereof” (METRION BIOSCIENCES LIMITED, priority 2018, dated 2024)
